Experimental data published in ChEMBL document CHEMBL1909046, “DrugMatrix in vitro pharmacology data”.

Tests used:
[1] = DRUGMATRIX: Nicotinic Acetylcholine radioligand binding (ligand: [125I] Epibatidine); type: cell membranes, Membrane; settings: imr-32; Not Active = under 50% inhibition at 10 µM
[2] = DRUGMATRIX: Tumor Necrosis Factor (TNF), Non-Selective radioligand binding (ligand: [125I] TNF-alpha); type: cell membranes, Membrane; settings: u-937; Not Active = under 50% inhibition at 10 µM
Cytochrome P450 2D6 = Cytochrome P450 2D6 (Homo sapiens, UniProt P10635); settings: bti-tn-5b1-4; note: in other assays of this panel Not Active means under 50% inhibition at 10 µM
[3] = molecular target: T1, 3-hydroxy-3-methylglutaryl-coenzyme A reductase (Homo sapiens, UniProt P04035); design: species or system Escherichia coli;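 note: enzyme inhibition assay of HMG-CoA reductase using radiolabeled [14C]HMG-CoA as substrate; in other assays of this panel Not Active means under 50% inhibition at 10 µM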
T1 sequence (P04035 whole entry): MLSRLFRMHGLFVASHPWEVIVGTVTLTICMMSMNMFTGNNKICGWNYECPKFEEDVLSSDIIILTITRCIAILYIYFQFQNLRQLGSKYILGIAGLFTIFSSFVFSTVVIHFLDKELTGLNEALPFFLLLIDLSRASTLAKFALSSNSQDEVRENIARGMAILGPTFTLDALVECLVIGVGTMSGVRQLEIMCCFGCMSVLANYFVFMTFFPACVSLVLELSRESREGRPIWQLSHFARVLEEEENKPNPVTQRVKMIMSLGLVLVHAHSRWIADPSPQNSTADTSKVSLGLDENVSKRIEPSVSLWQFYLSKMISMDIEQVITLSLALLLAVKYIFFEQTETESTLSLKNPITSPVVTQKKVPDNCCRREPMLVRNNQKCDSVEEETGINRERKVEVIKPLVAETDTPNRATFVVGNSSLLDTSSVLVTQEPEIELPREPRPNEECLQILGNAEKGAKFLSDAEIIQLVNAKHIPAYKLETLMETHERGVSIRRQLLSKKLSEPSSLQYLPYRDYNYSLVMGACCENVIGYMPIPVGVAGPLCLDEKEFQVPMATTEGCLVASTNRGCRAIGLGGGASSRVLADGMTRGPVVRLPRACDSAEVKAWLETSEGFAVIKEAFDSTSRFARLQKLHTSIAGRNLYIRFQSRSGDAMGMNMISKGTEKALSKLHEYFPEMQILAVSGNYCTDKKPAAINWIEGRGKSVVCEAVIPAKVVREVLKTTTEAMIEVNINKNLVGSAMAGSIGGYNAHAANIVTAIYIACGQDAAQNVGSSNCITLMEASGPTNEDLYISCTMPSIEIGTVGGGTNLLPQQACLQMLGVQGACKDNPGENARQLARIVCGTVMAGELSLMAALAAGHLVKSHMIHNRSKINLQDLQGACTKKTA

Adenosine receptor A1 = molecular target: T2, Adenosine receptor A1 (Homo sapiens, UniProt P30542); type: cell membranes, CHO, Membrane; settings: cho;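 note: radioligand binding assay at the adenosine A1 receptor, with DPCPX serving as the labelled ligand; in other assays of this panel Not Active means under 50% inhibition at 10 µM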
T2 sequence (P30542 whole entry): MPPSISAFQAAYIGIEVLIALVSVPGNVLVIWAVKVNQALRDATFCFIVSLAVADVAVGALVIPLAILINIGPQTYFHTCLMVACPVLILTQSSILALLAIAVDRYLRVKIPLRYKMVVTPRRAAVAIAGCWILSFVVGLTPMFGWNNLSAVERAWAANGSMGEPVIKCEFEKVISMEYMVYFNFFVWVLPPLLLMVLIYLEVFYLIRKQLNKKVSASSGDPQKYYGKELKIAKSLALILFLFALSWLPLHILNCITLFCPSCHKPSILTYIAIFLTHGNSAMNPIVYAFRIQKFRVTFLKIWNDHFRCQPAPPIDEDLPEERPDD

[4] = molecular target: T3, Neuropeptide Y receptor type 1 (Homo sapiens, UniProt P25929); type: cell membranes, Membrane; settings: sk-n-mc; note: in other assays of this panel Not Active means under 50% inhibition at 10 µM
T3 sequence (P25929 whole entry): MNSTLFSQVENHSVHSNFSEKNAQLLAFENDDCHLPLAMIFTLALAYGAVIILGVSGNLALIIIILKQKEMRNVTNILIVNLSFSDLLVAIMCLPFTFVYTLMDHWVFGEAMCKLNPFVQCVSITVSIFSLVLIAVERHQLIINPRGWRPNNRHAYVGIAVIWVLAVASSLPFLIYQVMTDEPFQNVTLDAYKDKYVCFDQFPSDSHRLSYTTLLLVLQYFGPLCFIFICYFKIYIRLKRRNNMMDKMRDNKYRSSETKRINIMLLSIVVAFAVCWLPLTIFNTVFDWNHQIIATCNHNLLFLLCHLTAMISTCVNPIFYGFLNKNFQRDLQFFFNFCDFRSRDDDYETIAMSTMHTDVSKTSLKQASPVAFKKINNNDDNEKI

[5] = DRUGMATRIX: Glutamate, NMDA, Phencyclidine radioligand binding (ligand: [3H] TCP); type: cell membranes, Rattus norvegicus, Wistar, Cerebral cortex, Membrane; settings: Not Active = under 50% inhibition at 10 µM

Cytochrome P450 2D6, sequence (P10635 whole entry): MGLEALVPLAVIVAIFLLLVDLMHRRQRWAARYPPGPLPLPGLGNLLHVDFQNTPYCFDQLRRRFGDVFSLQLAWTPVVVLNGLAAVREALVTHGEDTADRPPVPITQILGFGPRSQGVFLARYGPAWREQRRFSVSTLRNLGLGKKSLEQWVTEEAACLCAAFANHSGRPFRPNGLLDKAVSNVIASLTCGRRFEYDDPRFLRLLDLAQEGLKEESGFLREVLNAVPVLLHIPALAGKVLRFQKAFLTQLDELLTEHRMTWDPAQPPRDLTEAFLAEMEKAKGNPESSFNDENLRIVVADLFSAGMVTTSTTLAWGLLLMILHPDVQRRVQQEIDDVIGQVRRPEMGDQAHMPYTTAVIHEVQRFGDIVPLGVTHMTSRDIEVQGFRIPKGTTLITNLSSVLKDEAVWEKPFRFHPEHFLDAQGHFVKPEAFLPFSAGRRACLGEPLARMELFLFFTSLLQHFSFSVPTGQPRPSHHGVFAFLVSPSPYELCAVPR

CCC1(CCC(C)C)C(=O)NC(=O)NC1=O [AMOBARBITAL]
Not Active: IC50 [1] | Ki [1] | IC50 [2] | Ki [2] | IC50 (Cytochrome P450 2D6) | Ki (Cytochrome P450 2D6) | IC50 [3] | IC50 (Adenosine receptor A1) | Ki [4] | IC50 [5] | Ki [5]

COc1ccc2[nH]cc(CCNC(C)=O)c2c1 [MELATONIN]
Not Active: IC50 [1] | Ki [1] | IC50 [2] | Ki [2] | IC50 (Cytochrome P450 2D6) | Ki (Cytochrome P450 2D6) | IC50 [3] | IC50 (Adenosine receptor A1) | IC50 [4] | IC50 [5] | Ki [5]

O=C/C=C/c1ccccc1
Not Active: IC50 [1] | Ki [1] | IC50 [2] | Ki [2] | IC50 (Cytochrome P450 2D6) | Ki (Cytochrome P450 2D6) | IC50 [3] | IC50 (Adenosine receptor A1) | IC50 [4] | IC50 [5] | Ki [5]

CN(C)CC[C@@H](c1ccc(Cl)cc1)c1ccccn1 [DEXCHLORPHENIRAMINE]
Not Active: IC50 [1] | Ki [1] | IC50 [2] | Ki [2] | IC50 (Cytochrome P450 2D6) | Ki (Cytochrome P450 2D6) | IC50 [3] | IC50 (Adenosine receptor A1) | IC50 [4] | IC50 [5] | Ki [5]

CC(=O)O[C@H]1C(=O)[C@@]2(C)[C@H]([C@H](OC(=O)c3ccccc3)[C@]3(O)C[C@H](OC(=O)[C@H](O)[C@@H](NC(=O)c4ccccc4)c4ccccc4)C(C)=C1C3(C)C)[C@]1(OC(C)=O)CO[C@@H]1C[C@@H]2O [PACLITAXEL]
Not Active: IC50 [1] | Ki [1] | IC50 [2] | Ki [2] | IC50 (Cytochrome P450 2D6) | Ki (Cytochrome P450 2D6) | IC50 [3] | IC50 (Adenosine receptor A1) | IC50 [4] | IC50 [5] | Ki [5]

CC1(C)S[C@@H]2[C@H](NC(=O)[C@H](N)c3ccccc3)C(=O)N2[C@H]1C(=O)O [AMPICILLIN]
Not Active: IC50 [1] | Ki [1] | IC50 [2] | Ki [2] | IC50 (Cytochrome P450 2D6) | Ki (Cytochrome P450 2D6) | IC50 [3] | IC50 (Adenosine receptor A1) | IC50 [4] | IC50 [5] | Ki [5]

Cn1c(=O)c2c(ncn2CC(O)CO)n(C)c1=O (configuration not stated) [DYPHYLLINE]
Not Active: IC50 [1] | Ki [1] | IC50 [2] | Ki [2] | IC50 (Cytochrome P450 2D6) | Ki (Cytochrome P450 2D6) | IC50 [3] | IC50 (Adenosine receptor A1) | IC50 [4] | IC50 [5] | Ki [5]
